Laboratory results published in ChEMBL document CHEMBL1909046, “DrugMatrix in vitro pharmacology data”.

Key:
Interstitial collagenase = target: T1, Interstitial collagenase (Homo sapiens, UniProt P03956); type: tissue-based, Rheumatoid synovial fibroblasts;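 further: MMP-1 enzyme inhibition assay using a peptide substrate; in other assays of this panel Not Active means under 50% inhibition at 10 µM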
T1 sequence (P03956 whole entry): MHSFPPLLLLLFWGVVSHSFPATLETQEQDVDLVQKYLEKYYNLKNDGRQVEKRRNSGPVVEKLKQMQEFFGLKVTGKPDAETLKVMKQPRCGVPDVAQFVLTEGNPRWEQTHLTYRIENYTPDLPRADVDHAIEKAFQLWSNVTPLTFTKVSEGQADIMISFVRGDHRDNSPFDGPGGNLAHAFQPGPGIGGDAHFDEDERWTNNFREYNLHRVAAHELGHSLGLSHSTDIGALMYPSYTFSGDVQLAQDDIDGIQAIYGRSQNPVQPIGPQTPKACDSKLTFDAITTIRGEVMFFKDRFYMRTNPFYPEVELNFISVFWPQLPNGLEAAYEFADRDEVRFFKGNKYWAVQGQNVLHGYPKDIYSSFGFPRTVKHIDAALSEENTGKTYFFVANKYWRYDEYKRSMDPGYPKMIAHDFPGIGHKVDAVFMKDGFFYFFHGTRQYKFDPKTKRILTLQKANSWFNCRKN

[1] = DRUGMATRIX: beta-Lactamase enzyme inhibition (substrate: Nitrocefin); parameters: species or system Bacillus cereus; details: Not Active = under 50% inhibition at 10 µM
Acetylcholinesterase = Acetylcholinesterase (Homo sapiens, UniProt P22303); experiment: DRUGMATRIX: Acetylcholinesterase enzyme inhibition (substrate: acetylthiocholine); type: cell-based, HEK293; details: Not Active = under 50% inhibition at 10 µM
Sequence of Acetylcholinesterase (P22303 whole entry): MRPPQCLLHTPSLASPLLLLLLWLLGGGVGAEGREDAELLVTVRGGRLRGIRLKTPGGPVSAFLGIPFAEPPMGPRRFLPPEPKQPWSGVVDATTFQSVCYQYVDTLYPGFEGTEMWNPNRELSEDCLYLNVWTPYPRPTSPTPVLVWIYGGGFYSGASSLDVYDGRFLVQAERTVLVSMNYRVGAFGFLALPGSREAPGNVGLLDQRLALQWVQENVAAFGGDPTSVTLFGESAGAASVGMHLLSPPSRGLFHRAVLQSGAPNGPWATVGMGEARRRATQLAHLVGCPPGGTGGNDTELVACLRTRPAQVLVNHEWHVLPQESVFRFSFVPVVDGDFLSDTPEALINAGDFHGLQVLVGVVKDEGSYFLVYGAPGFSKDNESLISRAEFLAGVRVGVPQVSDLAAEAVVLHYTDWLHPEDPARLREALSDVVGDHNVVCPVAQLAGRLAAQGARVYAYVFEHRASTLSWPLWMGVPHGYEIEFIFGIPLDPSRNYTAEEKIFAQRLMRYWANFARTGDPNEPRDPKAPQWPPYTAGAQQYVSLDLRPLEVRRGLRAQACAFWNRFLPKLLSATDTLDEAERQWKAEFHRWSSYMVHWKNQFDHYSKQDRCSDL

Glucocorticoid receptor = target: T2, Glucocorticoid receptor (Homo sapiens, UniProt P04150); details: hela s3; further: in other assays of this panel Not Active means under 50% inhibition at 10 µM
T2 sequence (P04150 whole entry): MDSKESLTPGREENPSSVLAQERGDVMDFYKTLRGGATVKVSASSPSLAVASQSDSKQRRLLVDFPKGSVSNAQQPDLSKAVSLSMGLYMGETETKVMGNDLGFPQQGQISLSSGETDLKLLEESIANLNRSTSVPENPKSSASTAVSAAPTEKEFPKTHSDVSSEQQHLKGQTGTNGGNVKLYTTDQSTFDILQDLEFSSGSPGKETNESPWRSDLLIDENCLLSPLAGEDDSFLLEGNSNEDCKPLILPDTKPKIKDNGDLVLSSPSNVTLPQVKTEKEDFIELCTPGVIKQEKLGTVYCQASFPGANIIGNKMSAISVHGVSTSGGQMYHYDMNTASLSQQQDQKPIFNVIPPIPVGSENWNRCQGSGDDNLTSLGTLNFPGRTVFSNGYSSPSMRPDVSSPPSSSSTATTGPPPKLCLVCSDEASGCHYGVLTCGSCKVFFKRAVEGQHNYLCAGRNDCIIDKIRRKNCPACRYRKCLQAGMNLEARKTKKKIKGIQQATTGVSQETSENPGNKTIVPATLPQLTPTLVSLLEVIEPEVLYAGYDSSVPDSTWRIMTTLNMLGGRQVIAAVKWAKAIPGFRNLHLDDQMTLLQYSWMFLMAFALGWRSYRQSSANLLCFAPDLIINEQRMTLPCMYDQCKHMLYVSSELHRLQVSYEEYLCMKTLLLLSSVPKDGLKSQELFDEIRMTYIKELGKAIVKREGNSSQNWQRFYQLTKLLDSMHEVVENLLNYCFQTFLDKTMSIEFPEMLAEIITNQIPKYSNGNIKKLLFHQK

Melanocortin receptor 3 = Melanocortin receptor 3 (Homo sapiens, UniProt P41968); type: cell membranes, Membrane; details: hek293; further: in other assays of this panel Not Active means under 50% inhibition at 10 µM
Sequence of Melanocortin receptor 3 (P41968 whole entry): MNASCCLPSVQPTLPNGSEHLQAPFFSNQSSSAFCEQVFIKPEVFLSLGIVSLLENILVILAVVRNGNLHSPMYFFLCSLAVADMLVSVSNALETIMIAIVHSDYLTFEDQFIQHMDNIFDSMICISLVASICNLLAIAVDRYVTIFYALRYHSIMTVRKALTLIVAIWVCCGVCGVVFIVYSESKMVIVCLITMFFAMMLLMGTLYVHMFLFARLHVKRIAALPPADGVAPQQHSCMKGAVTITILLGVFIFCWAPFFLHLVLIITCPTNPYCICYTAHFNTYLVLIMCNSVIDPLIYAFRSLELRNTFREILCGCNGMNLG

[2] = target: cGMP-specific 3',5'-cyclic phosphodiesterase (Homo sapiens, UniProt O76074); experiment: DRUGMATRIX: Phosphodiesterase PDE5 enzyme inhibition (substrate: [3H]cGMP + cGMP); type: tissue-based; details: platelet; Not Active = under 50% inhibition at 10 µM
[3] = target: Tyrosine-protein kinase Lck (Homo sapiens, UniProt P06239); experiment: DRUGMATRIX: Protein Tyrosine Kinase, LCK enzyme inhibition (substrate: Poly(Glu:Tyr)); type: cell-based, Insect cells; details: insect cells; Not Active = under 50% inhibition at 10 µM
Sequence of Tyrosine-protein kinase Lck (P06239 whole entry): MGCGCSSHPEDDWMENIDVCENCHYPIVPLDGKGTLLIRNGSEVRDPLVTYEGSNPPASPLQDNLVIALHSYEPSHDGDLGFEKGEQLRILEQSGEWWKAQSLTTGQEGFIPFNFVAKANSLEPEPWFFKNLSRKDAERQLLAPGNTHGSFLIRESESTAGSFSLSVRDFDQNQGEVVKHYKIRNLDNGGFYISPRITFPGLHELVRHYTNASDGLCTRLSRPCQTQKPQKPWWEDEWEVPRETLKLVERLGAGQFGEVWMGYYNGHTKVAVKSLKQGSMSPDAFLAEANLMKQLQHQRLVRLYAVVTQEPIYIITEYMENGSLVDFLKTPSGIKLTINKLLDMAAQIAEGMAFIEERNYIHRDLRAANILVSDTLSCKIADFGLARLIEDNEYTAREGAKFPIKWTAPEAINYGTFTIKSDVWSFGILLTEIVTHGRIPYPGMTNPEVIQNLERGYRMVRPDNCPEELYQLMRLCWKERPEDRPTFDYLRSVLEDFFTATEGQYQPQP

Row | SMILES | IC50 (Interstitial collagenase) | IC50 [1] | Ki [1] | IC50 (Acetylcholinesterase; hek293) | IC50 (Glucocorticoid receptor) | IC50 (Melanocortin receptor 3) | IC50 [2] | IC50 [3] | IC50 (Acetylcholinesterase; read-out: IC50) [µM]
1 | COc1cc(N)nc2[nH]c(-c3ccc(F)cc3)c(-c3ccncc3)c12 | Not Active | Not Active | Not Active | Not Active | Not Active | Not Active | Not Active | – | –
2 | CNS(=O)(=O)Cc1ccc2[nH]cc(CCN(C)C)c2c1 | Not Active | Not Active | Not Active | Not Active | Not Active | Not Active | Not Active | Not Active | –
3 | CCCc1nn(C)c2c(=O)[nH]c(-c3cc(S(=O)(=O)N4CCN(C)CC4)ccc3OCC)nc12 | Not Active | Not Active | Not Active | Not Active | Not Active | Not Active | – | Not Active | –
4 | COc1ccc(/C=C/C(=O)Nc2ccccc2C(=O)O)cc1OC | Not Active | Not Active | Not Active | Not Active | Not Active | Not Active | Not Active | Not Active | –
5 | CCOC(N)=O | Not Active | Not Active | Not Active | Not Active | – | Not Active | Not Active | Not Active | –
6 | CC(=O)Nc1nnc(S(N)(=O)=O)s1 [ACETAZOLAMIDE] | Not Active | – | – | Not Active | Not Active | Not Active | Not Active | Not Active | –
7 | O=c1[nH]c2ccccc2n1CCCN1CCC(n2c(=O)[nH]c3cc(Cl)ccc32)CC1 [DOMPERIDONE] | Not Active | – | – | Not Active | Not Active | Not Active | Not Active | Not Active | –
8 | CC1=C(CC(=O)O)c2cc(F)ccc2/C1=C\c1ccc(S(C)(=O)=O)cc1 [EXISULIND] | Not Active | Not Active | Not Active | Not Active | – | Not Active | Not Active | Not Active | –
9 | CC(C)OC(=O)C(C)(C)Oc1ccc(C(=O)c2ccc(Cl)cc2)cc1 [FENOFIBRATE] | Not Active | – | – | – | Not Active | Not Active | Not Active | Not Active | 15.6
10 | OCCN1CCN(CCCN2c3ccccc3Sc3ccc(C(F)(F)F)cc32)CC1 [FLUPHENAZINE] | Not Active | – | – | Not Active | Not Active | Not Active | Not Active | Not Active | –
11 | CN1C2CCCC1CC(NC(=O)c1nn(C)c3ccccc13)C2 (configuration not stated) [GRANISETRON] | Not Active | – | – | Not Active | – | Not Active | Not Active | Not Active | –
12 | Nc1nc2c(c(=O)[nH]1)N(C=O)C(CNc1ccc(C(=O)N[C@@H](CCC(=O)O)C(=O)O)cc1)CN2 (some centres not stated) [LEUCOVORIN] | Not Active | Not Active | Not Active | Not Active | Not Active | Not Active | Not Active | Not Active | –
13 | C[C@@H](O)[C@H]1C(=O)N2C(C(=O)O)=C(S[C@@H]3CN[C@H](C(=O)N(C)C)C3)[C@H](C)[C@H]12 [MEROPENEM] | Not Active | Not Active | Not Active | Not Active | Not Active | Not Active | Not Active | Not Active | –
14 | CC[C@@H](CO)NC(=O)[C@@H]1C=C2c3cccc4c3c(cn4C)C[C@H]2N(C)C1 [METHYSERGIDE] | Not Active | – | – | Not Active | – | Not Active | Not Active | Not Active | –
15 | CCN(CC)CC#CCOC(=O)C(O)(c1ccccc1)C1CCCCC1 (configuration not stated) [OXYBUTYNIN] | Not Active | – | – | Not Active | Not Active | Not Active | Not Active | Not Active | –
16 | O=P(O)(O)C(O)(Cc1cccnc1)P(=O)(O)O [RISEDRONIC ACID] | Not Active | Not Active | Not Active | Not Active | Not Active | Not Active | Not Active | Not Active | –
17 | CN(CCOc1ccc(CC2SC(=O)NC2=O)cc1)c1ccccn1 (configuration not stated) [ROSIGLITAZONE] | Not Active | Not Active | Not Active | Not Active | – | Not Active | Not Active | Not Active | –
18 | C=C(C)[C@H]1Cc2c(ccc3c2O[C@@H]2COc4cc(OC)c(OC)cc4[C@@H]2C3=O)O1 [ROTENONE] | Not Active | Not Active | Not Active | Not Active | Not Active | Not Active | Not Active | Not Active | –
19 | C#CCN(C)[C@H](C)Cc1ccccc1 [SELEGILINE] | Not Active | Not Active | Not Active | Not Active | Not Active | Not Active | Not Active | Not Active | –
20 | CO[C@H]1C[C@@H]2CC[C@@H](C)[C@@](O)(O2)C(=O)C(=O)N2CCCC[C@H]2C(=O)O[C@H]([C@H](C)C[C@@H]2CC[C@@H](O)[C@H](OC)C2)CC(=O)[C@H](C)/C=C(\C)[C@@H](O)[C@@H](OC)C(=O)[C@H](C)C[C@H](C)/C=C/C=C/C=C/1C [SIROLIMUS] | Not Active | Not Active | Not Active | Not Active | – | Not Active | Not Active | Not Active | –
21 | Nc1ccc(S(=O)(=O)Nc2ncccn2)cc1 [SULFADIAZINE] | Not Active | Not Active | Not Active | Not Active | – | Not Active | Not Active | Not Active | –
22 | COc1ncnc(NS(=O)(=O)c2ccc(N)cc2)c1OC [SULFADOXINE] | Not Active | Not Active | Not Active | Not Active | – | Not Active | Not Active | Not Active | –
23 | C[C@]12CC[C@H]3[C@@H](CCC4=CC(=O)CC[C@@]43C)[C@@H]1CC[C@@H]2O [TESTOSTERONE] | Not Active | Not Active | Not Active | Not Active | – | Not Active | Not Active | Not Active | –
24 | CCS(=O)(=O)CCn1c([N+](=O)[O-])cnc1C [TINIDAZOLE] | Not Active | Not Active | Not Active | Not Active | – | Not Active | Not Active | Not Active | –
25 | NC[C@H]1O[C@H](O[C@H]2[C@H](O)[C@@H](O[C@H]3O[C@H](CO)[C@@H](O)[C@H](N)[C@H]3O)[C@H](N)C[C@@H]2N)[C@H](N)C[C@@H]1O [TOBRAMYCIN] | Not Active | Not Active | Not Active | Not Active | – | Not Active | Not Active | Not Active | –
26 | O=c1n(CCCN2CCN(c3cccc(Cl)c3)CC2)nc2ccccn12 [TRAZODONE] | Not Active | – | – | Not Active | – | Not Active | Not Active | Not Active | –
27 | O=C(O)C(Cl)(Cl)Cl [TRICHLOROACETIC ACID] | Not Active | Not Active | Not Active | Not Active | – | Not Active | Not Active | Not Active | –
28 | CC(=O)O[C@H]1C[C@@H]2CC[C@@H]3[C@H](CC[C@@]4(C)[C@H]3C[C@H]([N+]3(C)CCCCC3)[C@@H]4OC(C)=O)[C@@]2(C)C[C@@H]1N1CCCCC1.[Br-] [VECURONIUM BROMIDE] | Not Active | Not Active | Not Active | Not Active | – | Not Active | Not Active | Not Active | –
